Experiments:
[1] = In vitro ability to displace the specific binding of [3H]diltiazem to diltiazem receptor in guinea pig skeletal muscle.
[2] = as above; remark: listed apart in the source

| SMILES | Kd [1] | Kd [2] |
| --- | --- | --- |
| COc1ccc([C@@H]2Cc3c(OC)cccc3N(CCN(C)C)C(=O)[C@@H]2OC(C)=O)cc1 | 1800 nM |  |
| CNCCN1C(=O)[C@H](OC(C)=O)[C@H](c2ccc(OCCOC)cc2)Cc2c1cccc2C(F)(F)F | 5800 nM |  |
| COc1ccc([C@@H]2Cc3c(cccc3C(F)(F)F)N(CCN(C)C)C(=O)[C@@H]2C)cc1OC | 2000 nM |  |
| CSc1ccc([C@@H]2Cc3c(cccc3C(F)(F)F)N(CCN(C)C)C(=O)[C@@H]2C)cc1 | 1100 nM |  |
| COc1ccc([C@@H]2Cc3c(cccc3C(F)(F)F)N(CCN(C)C)C(=O)[C@@H]2O)cc1 | 660 nM |  |
| COc1ccc([C@@H]2Cc3c(cccc3C(F)(F)F)N(CCN(C)C(C)=O)C(=O)[C@@H]2O)cc1 | 13000 nM |  |
| COc1ccc([C@@H]2Cc3ccccc3N(CCN(C)C)C(=O)[C@@H]2OC(C)=O)cc1 | 5100 nM |  |
| C#CCN(C)CCN1C(=O)[C@H](OC(C)=O)[C@H](c2ccc(OC)cc2)Cc2c1cccc2C(F)(F)F | 1800 nM |  |
| CCc1ccc([C@@H]2Cc3c(cccc3C(F)(F)F)N(CCN(C)C)C(=O)[C@@H]2C)cc1 | 1000 nM |  |
| COc1ccc([C@@H]2Cc3c(cccc3C(F)(F)F)N(C(C)CN(C)C)C(=O)[C@@H]2C)cc1 (stereo partly specified) |  | 540 nM |
| COc1ccc([C@@H]2Cc3c(cccc3C(F)(F)F)N(CC[N+](C)(C)C)C(=O)[C@@H]2C)cc1 | 840 nM |  |
| C[C@H]1C(=O)N(CCN(C)C)c2cccc(C(F)(F)F)c2C[C@H]1c1ccc(O)cc1 | 1600 nM |  |
| CC[C@H]1C(=O)N(CCN(C)C)c2cccc(C(F)(F)F)c2C[C@H]1c1ccc(OC)cc1 | 600 nM |  |
| COc1ccc([C@@H]2Cc3c(C(=O)OCc4ccccc4)cccc3N(CCN(C)C)C(=O)[C@@H]2OC(C)=O)cc1 | 1400 nM |  |
| CNC(=O)CN1C(=O)[C@H](OC(C)=O)[C@H](c2ccc(OC)cc2)Cc2c1cccc2C(F)(F)F | 15000 nM |  |
| CNc1ccc([C@@H]2Cc3c(cccc3C(F)(F)F)N(CCN(C)C)C(=O)[C@@H]2C)cc1 | 570 nM |  |

The remaining compounds from weak to strong by Kd [1], led by results:

| Kd [1] | Kd [2] | SMILES |
| --- | --- | --- |
| 520 nM |  | CCCN(C)CCN1C(=O)[C@H](OC(C)=O)[C@H](c2ccc(OC)cc2)Cc2c1cccc2C(F)(F)F |
| 420 nM |  | C=CCN(C)CCN1C(=O)[C@H](OC(C)=O)[C@H](c2ccc(OC)cc2)Cc2c1cccc2C(F)(F)F |
| 400 nM |  | COc1ccc([C@@H]2Cc3c(OC)cccc3N(CCN(C)C)C(=O)[C@@H]2C)cc1 |
| 320 nM |  | COc1ccc([C@@H]2Cc3c(cccc3C(F)(F)F)N(CC(C)N(C)C)C(=O)[C@@H]2C)cc1 (stereo partly specified) |
| 250 nM |  | CCC[C@H]1C(=O)N(CCN(C)C)c2ccccc2C[C@H]1c1ccc(OC)cc1 |
| 220 nM |  | COc1ccc([C@@H]2Cc3c(cccc3C(F)(F)F)N(CCN(C)CCCCc3ccccc3)C(=O)[C@@H]2OC(C)=O)cc1 |
| 160 nM |  | CNCCN1C(=O)[C@H](OC(C)=O)[C@H](c2ccc(OC)cc2)Cc2c1cccc2C(F)(F)F |
| 130 nM |  | COc1ccc([C@@H]2Cc3c(cccc3C(F)(F)F)N(CCN(C)C(C)C)C(=O)[C@@H]2C)cc1 |
| 120 nM |  | COc1ccc([C@@H]2Cc3c(ccc(Br)c3OC)N(CCN(C)C)C(=O)[C@@H]2C)cc1 |
| 120 nM |  | COc1ccc([C@@H]2Cc3c(ccc(Br)c3OC)N(CCN(C)C)C(=O)[C@@H]2OC(C)=O)cc1 |
